Experimental data as given in ChEMBL document CHEMBL1201862, “PubChem BioAssay data set” (2004).
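Tested at 5 concentrations; 48 h exposure; 96-well plates; endpoints linearly interpolated, else capped at highest concentration. The concentration for 50% growth inhibition is given as GI50.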 The source made the active and inactive calls. Cut-off read from the data, not from the text of the source: active = GI50 up to about 1.1 µM and inactive = higher.

Columns and labels:
Assay in all cases: NCI-60 cell line screen, 48 h
HL-60 = system: HL-60
Malme-3M = system: Malme-3M
NCI/ADR-RES = system: NCI/ADR-RES
HCT-15 = system: HCT-15
U-251 = system: U-251
UO-31 = system: UO-31
OVCAR-8 = system: OVCAR-8
SN12C = system: SN12C
HOP-92 = system: HOP-92
HOP-62 = system: HOP-62
MDA-MB-435 = system: MDA-MB-435
NCI-H226 = system: NCI-H226
CAKI-1 = system: CAKI-1
SF-295 = system: SF-295
NCI-H460 = system: NCI-H460
HCT-116 = system: HCT-116
NCI-H23 = system: NCI-H23
K562 = system: K562
NCI-H522 = system: NCI-H522
SF-539 = system: SF-539

Compound	GI50 (HL-60)	GI50 (Malme-3M)	GI50 (NCI/ADR-RES)	GI50 (HCT-15) [µM]	GI50 (U-251)	GI50 (UO-31)	GI50 (OVCAR-8)	GI50 (SN12C)	GI50 (HOP-92)	GI50 (HOP-62)	GI50 (MDA-MB-435)	GI50 (NCI-H226)	GI50 (CAKI-1)	GI50 (SF-295)	GI50 (NCI-H460)	GI50 (HCT-116)	GI50 (NCI-H23)	GI50 (K562)	GI50 (NCI-H522)	GI50 (SF-539)
COC(=O)c1cc(C)ccc1/C=C1\Cc2c(C)cc(C)cc2C1=O	21.9 µM (inactive)	> 63.4 µM (inactive)	64.3 µM (inactive)	> 100	14 µM (inactive)	12.3 µM (inactive)	47 µM (inactive)	69 µM (inactive)	4.56 µM (inactive)	11.9 µM (inactive)	59 µM (inactive)	35.4 µM (inactive)	30.6 µM (inactive)	3.61 µM (inactive)	> 85.7 µM (inactive)	8.41 µM (inactive)	14.5 µM (inactive)	> 100 µM (inactive)	21.3 µM (inactive)	15.6 µM (inactive)
C=C/C(C)=C\CC1[C@](C)(O)CC[C@H]2C(C)(C)C(O)CC[C@]12C (stereo partly specified)	17.7 µM (inactive)	> 100 µM (inactive)	> 100 µM (inactive)	> 100	> 100 µM (inactive)	> 100 µM (inactive)	> 100 µM (inactive)	> 100 µM (inactive)	> 100 µM (inactive)	–	> 100 µM (inactive)	> 100 µM (inactive)	> 100 µM (inactive)	> 100 µM (inactive)	78.2 µM (inactive)	54.8 µM (inactive)	55.8 µM (inactive)	34.4 µM (inactive)	91.4 µM (inactive)	> 100 µM (inactive)
CN(C)N1C(=C(C#N)C#N)C(c2ccccc2)CC1C#N (stereo unspecified)	> 100 µM (inactive)	> 100 µM (inactive)	> 100 µM (inactive)	> 100	> 100 µM (inactive)	> 100 µM (inactive)	> 100 µM (inactive)	> 100 µM (inactive)	> 100 µM (inactive)	> 100 µM (inactive)	> 100 µM (inactive)	> 100 µM (inactive)	> 100 µM (inactive)	> 100 µM (inactive)	–	> 100 µM (inactive)	> 100 µM (inactive)	> 100 µM (inactive)	> 100 µM (inactive)	> 100 µM (inactive)
N#Cc1c(Cl)c(C=O)c(=O)n2c1[nH]c1ccccc12	42.6 µM (inactive)	26.4 µM (inactive)	28.3 µM (inactive)	57.5	67 µM (inactive)	46.2 µM (inactive)	42.1 µM (inactive)	61.8 µM (inactive)	24.2 µM (inactive)	39 µM (inactive)	33.7 µM (inactive)	24.7 µM (inactive)	40.3 µM (inactive)	35.9 µM (inactive)	> 100 µM (inactive)	29.8 µM (inactive)	42.1 µM (inactive)	56.8 µM (inactive)	44 µM (inactive)	35.9 µM (inactive)
Brc1ccc2c(-c3nc(-c4c[nH]c5ccccc45)cs3)c[nH]c2c1	63 µM (inactive)	> 100 µM (inactive)	27 µM (inactive)	16.8	35.2 µM (inactive)	19.5 µM (inactive)	36.4 µM (inactive)	42.9 µM (inactive)	43.1 µM (inactive)	> 45.8 µM (inactive)	34.6 µM (inactive)	39 µM (inactive)	30.9 µM (inactive)	20.3 µM (inactive)	11.8 µM (inactive)	23.8 µM (inactive)	24.9 µM (inactive)	13.1 µM (inactive)	48 µM (inactive)	15.6 µM (inactive)
O=C1CSC(c2cccc(Oc3ccccc3)c2)N1c1cccc(Cl)c1Cl (stereo unspecified)	22.7 µM (inactive)	30.4 µM (inactive)	21.9 µM (inactive)	19.5	18.2 µM (inactive)	36.9 µM (inactive)	19.8 µM (inactive)	31.5 µM (inactive)	12.3 µM (inactive)	41.4 µM (inactive)	13.7 µM (inactive)	28.5 µM (inactive)	65.2 µM (inactive)	39.5 µM (inactive)	26 µM (inactive)	21.2 µM (inactive)	27.5 µM (inactive)	20.4 µM (inactive)	20.7 µM (inactive)	22.9 µM (inactive)
CCOC(=O)CSc1nnc2cc(CN3CCCC3)c(-c3ccc(Cl)cc3)nn12	89.3 µM (inactive)	> 100 µM (inactive)	> 100 µM (inactive)	> 100	> 100 µM (inactive)	> 100 µM (inactive)	> 100 µM (inactive)	> 100 µM (inactive)	> 100 µM (inactive)	> 100 µM (inactive)	72.9 µM (inactive)	> 100 µM (inactive)	> 100 µM (inactive)	> 100 µM (inactive)	48.4 µM (inactive)	> 100 µM (inactive)	> 100 µM (inactive)	83.8 µM (inactive)	39.7 µM (inactive)	60.1 µM (inactive)
Cc1ccc([N+](=O)[O-])c2c(NCCNC(=O)c3cc(C(=O)NCCNc4ccnc5c(C)ccc([N+](=O)[O-])c45)n(C)n3)ccnc12	53.6 µM (inactive)	55.2 µM (inactive)	> 100 µM (inactive)	> 76.9	> 89.5 µM (inactive)	> 100 µM (inactive)	> 72.1 µM (inactive)	> 57.7 µM (inactive)	> 100 µM (inactive)	> 60 µM (inactive)	> 41.6 µM (inactive)	> 100 µM (inactive)	98.6 µM (inactive)	> 79.6 µM (inactive)	> 100 µM (inactive)	> 100 µM (inactive)	> 84.9 µM (inactive)	40.5 µM (inactive)	> 67.3 µM (inactive)	> 100 µM (inactive)
O=C(O)CN1CCN(CC(=O)N2CCN(C(=O)OCc3ccccc3)CC2)CCN(CC(=O)O)CCN(CC(=O)N2CCN(C(=O)OCc3ccccc3)CC2)CC1	> 100 µM (inactive)	> 100 µM (inactive)	> 100 µM (inactive)	> 100	> 100 µM (inactive)	> 100 µM (inactive)	> 100 µM (inactive)	> 100 µM (inactive)	> 100 µM (inactive)	> 100 µM (inactive)	> 100 µM (inactive)	> 100 µM (inactive)	> 100 µM (inactive)	> 100 µM (inactive)	> 100 µM (inactive)	> 100 µM (inactive)	–	> 100 µM (inactive)	> 100 µM (inactive)	> 100 µM (inactive)
CCOC(=O)C1C(C)C2(C#N)C(=N)OC1(C)C2(C#N)C#N (stereo unspecified)	21.8 µM (inactive)	77.3 µM (inactive)	> 100 µM (inactive)	12.5	69.2 µM (inactive)	76.9 µM (inactive)	> 100 µM (inactive)	64.9 µM (inactive)	30.1 µM (inactive)	–	65.9 µM (inactive)	73.8 µM (inactive)	53.6 µM (inactive)	> 100 µM (inactive)	–	76.7 µM (inactive)	60 µM (inactive)	39.4 µM (inactive)	71.9 µM (inactive)	47.2 µM (inactive)
COc1cc2c(cc1O)CC[n+]1cc3c(OC)c(OC)ccc3cc1-2	> 100 µM (inactive)	59.6 µM (inactive)	> 100 µM (inactive)	> 100	35.6 µM (inactive)	> 100 µM (inactive)	> 100 µM (inactive)	> 100 µM (inactive)	87.7 µM (inactive)	–	> 100 µM (inactive)	> 100 µM (inactive)	> 100 µM (inactive)	> 100 µM (inactive)	> 100 µM (inactive)	> 100 µM (inactive)	62.5 µM (inactive)	75 µM (inactive)	> 100 µM (inactive)	> 100 µM (inactive)
COc1ccc(-n2c(=O)c3nc[nH]c3n(-c3ccc(OC)cc3)c2=S)cc1	> 100 µM (inactive)	–	> 100 µM (inactive)	> 100	> 100 µM (inactive)	> 100 µM (inactive)	> 100 µM (inactive)	> 100 µM (inactive)	> 100 µM (inactive)	> 100 µM (inactive)	> 100 µM (inactive)	> 100 µM (inactive)	> 100 µM (inactive)	> 100 µM (inactive)	> 100 µM (inactive)	> 100 µM (inactive)	> 100 µM (inactive)	> 100 µM (inactive)	17.7 µM (inactive)	> 100 µM (inactive)
Cc1c(/C=N/NC(=S)N2CCCCC2)c(=O)n(-c2ccccc2)n1C	14 µM (inactive)	54.1 µM (inactive)	28.9 µM (inactive)	23.1	83.2 µM (inactive)	42.4 µM (inactive)	42.8 µM (inactive)	–	> 100 µM (inactive)	88.9 µM (inactive)	> 100 µM (inactive)	> 100 µM (inactive)	77.1 µM (inactive)	40.7 µM (inactive)	37.1 µM (inactive)	57.8 µM (inactive)	> 100 µM (inactive)	36.6 µM (inactive)	39.1 µM (inactive)	> 100 µM (inactive)
Cc1ccc([S+]([O-])CC(CF)OCn2cc(C)c(=O)[nH]c2=O)cc1 (stereo unspecified)	> 100 µM (inactive)	> 100 µM (inactive)	> 100 µM (inactive)	> 100	> 100 µM (inactive)	> 100 µM (inactive)	> 100 µM (inactive)	> 100 µM (inactive)	> 100 µM (inactive)	> 100 µM (inactive)	> 100 µM (inactive)	> 100 µM (inactive)	> 100 µM (inactive)	> 100 µM (inactive)	> 100 µM (inactive)	> 100 µM (inactive)	> 100 µM (inactive)	–	> 100 µM (inactive)	> 100 µM (inactive)
